On the set-up of data set [1]: method as in PMID 8289200. The settings on record: in the presence of HSA; cited from earlier work.
The test system of data set [2] is HSA. The settings on record: cited from earlier work.
Data set [3] has as its system SK-LMS-1. The settings on record: SK-LMS-1 cell line; cited from earlier work.
For data set [4], the system named is SK-LMS-1 xenograft tumors. The format is in vivo, SCID mice. Also noted: Estimate of tumor volume difference vs SPESN38-8 / Estimate of tumor volume difference vs Vehicle: unit not given here. The settings on record: for Tumor volume, Mean / Tumor volume, Median: in mm³ (unit assumed); for Tumor volume change from Day 0, Mean / Tumor volume change from Day 0, Median: volume minus day 0 volume. The text has this:
SK-LMS-1 cell line (HTB-88) was purchased from ATCC. […] Equal number (12) of female and male mice were used in this experiment. […] The intended schedule for drug or vehicle treatment was weekly for 3 doses.
A mixed linear regression model was made with tumor volume as the outcome on day 2, 6, and 9. The model tested for group differences adjusted for time, day 0 volume, and sex. There was a within animal correlation modeled using a random intercept. […] The black color columns are within group at between days, the red columns are between group at each day.

Data set [5] can be described thus: Water solubility and solution stability. The format is physicochemical. The text has this:
Following the formation of SPESN38 complexes, the solution was lyophilized to yield yellowish powder.

Data set [6] can be described thus: Membrane dialysis SN38 release kinetics. Type of data set: physicochemical. The settings on record: in 7 h; 0.1 M NaHCO3 buffer, pH 8.6.
In data set [7] the test system is cancer cells. Set-up: method as in PMID 11489791, PMID 1651156. The settings on record: cited from earlier work.
Details of data set [8]: method as in earlier work. The settings on record: irinotecan at 200 mg/kg, mice, cited from earlier work.
A short description of data set [9]: Irinotecan IV dose tolerability. Type of data set: in vivo, mouse. The settings on record: female, mouse, in vivo; SCID mice, via IV. Here is the method: (§1) After growing in Eagle's Minimum Essential, HCT-116 cells were harvested by trypsinization and washed twice with PBS. HCT-116 cells (2 × 10^6 per injection) were suspended in 200 µL of a 1:1 solution of ice-cold PBS and Matrigel (Corning Incorporated, Corning, NY) solution. […] After the tumors grew to 800–1200 mm^3, they were isolated, and approximately 50 mg of non-necrotic tumor masses were subcutaneously implanted into the flank area of individual female SCID mice. […] Other doses at 75 and 50 mg/kg were tried on healthy CD-1 mice. […] Tumor volume (TV) and BW were measured three times per week or daily depending on the condition of the mouse. TV was calculated using the formula: v = 0.5 (L x W^2). Progression at the endpoint was a tumor size with diameter ≥ 20 mm or a moribund condition.

In data set [10] the test system is SCID mice and CD-1 mice. Nature of the data set: Irinotecan IV dose tolerability. Type of data set: in vivo, mouse. How it is done: as §1
For data set [11] the following is noted: cited from earlier work.
The subject of data set [12] is HCT-116 CRC xenograft tumors. Nature of the data set: HCT-116 model efficacy study. The settings on record: for tumor growth inhibition (TGI) on Day 10: IV (irinotecan 50 mg/kg, SPESN38-5 55 mg/kg), vs control group, female SCID mice. How it is done:
as §1

Where [13] appears, read: DOX 5 mg/kg qwk x 2, SPESN38-8 IV 33 mg/kg qwk x 3.
Where [14] appears, read: Day 2, mixed linear regression model, Tukey-Kramer pairwise test.
The mark [15] stands for this setting: Day 6, mixed linear regression model, Tukey-Kramer pairwise test.
[16] abbreviates: IV, DOX 5 mg/kg, SPESN38-8 33 mg/kg, relative to control group.
The mark [17] stands for this setting: mixed linear regression model, Tukey-Kramer pairwise test.

Molecules are shown by their SMILES. Values joined by “and” are separate entries in the source; they are usually repeats but may differ in a detail not shown here. Equal entries are not always repeated. Structures can show the parent of a compound that is named as a salt. Where two headings read alike, the source gives them in different places. A value given as a limit tells only on which side of the number the result lay.

Regarding `CC[C@@]1(O)C(=O)OCc2c1cc1n(c2=O)Cc2cc3ccccc3nc2-1` [CPT, Camptothecin], the “L form at the equilibrium” value in [1] is reported as < 0.5%. For the same compound, in data set [2], the “fold higher HSA affinity for the C form over the L form” value was 157 fold.
For the compound `COc1cccc2c1C(=O)c1c(O)c3c(c(O)c1C2=O)C[C@@](O)(C(=O)CO)C[C@@H]3O[C@H]1C[C@H](N)[C@H](O)[C@H](C)O1` [DOX, doxorubicin], the IC50 (commonly the point on the concentration scale where inhibition reaches its midpoint) in data set [3] was 490 nM. In data set [4] (setting [13]), the “% Tumor volume change at Day 9” value was 142% and 142.4%; the “Mean Tumor volume at Day 9” value is recorded as 843.5 mm^3. Further, in data set [4] (DOX Day 9, SPESN38-8 Day 21), the Tumor weight on ending day, Mean was 0.73 g and the Tumor weight on ending day, Median was 0.71 g. Also, the “Initial mean Tumor volume” value in [4] (Day 0, DOX 5 mg/kg qwk x 2, SPESN38-8 IV 33 mg/kg qwk x 3) is recorded as 334.2 mm^3. Further, in data set [4] (Day 0), the “Tumor volume, Mean” value is given as 334.20 and the “Tumor volume, Median” value is 343.40. Besides, in data set [4] (Day 2), the “Tumor volume, Mean” value was 347.68; the “Tumor volume, Median” value is listed as 355.78; the “Tumor volume change from Day 0, Mean” value is 13.48; the “Tumor volume change from Day 0, Median” value was 14.71. Besides, in data set [4] (setting [14]), the “Estimate of tumor volume difference vs SPESN38-8” value is reported as 42.5383 and the “Estimate of tumor volume difference vs Vehicle” value was -178.73. Also, in data set [4] (Day 6), the “Tumor volume, Mean” value was 495.42; the “Tumor volume, Median” value is 464.84; the “Tumor volume change from Day 0, Mean” value was 161.22; the “Tumor volume change from Day 0, Median” value is 138.34. Further, in [4] (setting [15]), the “Estimate of tumor volume difference vs SPESN38-8” value is 132.53 and the “Estimate of tumor volume difference vs Vehicle” value is reported as -258.70. In data set [4] (Day 9), the “Tumor volume, Mean” value was 843.52; the “Tumor volume, Median” value is listed as 810.34; the “Tumor volume change from Day 0, Mean” value is reported as 509.32; the “Tumor volume change from Day 0, Median” value was 472.65. Further, the “Estimate of tumor volume difference vs SPESN38-8” value in data set [4] (Day 9, mixed linear regression model, Tukey-Kramer pairwise test) is reported as 538.49. Besides, in data set [4] (setting [16]), the “TGI on Day 6” value was 27% and 26.9%; the “TGI on Day 9” value is 25% and 25.3%. Moreover, in [4] (setting [17]), the “Estimate of tumor volume difference within group, Day 2 vs Day 6” value is -147.74; the “Estimate of tumor volume difference within group, Day 2 vs Day 9” value was -495.84; the “Estimate of tumor volume difference within group, Day 6 vs Day 9” value is -348.11. In addition, the “BW loss after 2 doses” value in [4] (mouse, in vivo) was > 20%.
As to `CCc1c2c(nc3ccc(O)cc13)-c1cc3c(c(=O)n1C2)COC(=O)[C@]3(O)CC` [SN38 salt], the solution stability entry in data set [5] (under the same conditions as SPESN38 complexes) is “neither SN38 salt nor SN38 salt-HSA mixture is stable”. Also, in data set [6], the “SN38 out of the membrane tubing” value was > 90%.
For the compound `CCc1c2c(nc3ccc(O)cc13)-c1cc3c(c(=O)n1C2)COC(=O)[C@]3(O)CC` [SN38, 7-ethyl-10-hydroxy camptothecin], the “times more cytotoxic than irinotecan” value in [7] was 100–1000 times. In [5], the water solubility entry is “very low solubility in water”.
Take `CCc1c2c(nc3ccc(OC(=O)N4CCC(N5CCCCC5)CC4)cc13)-c1cc3c(c(=O)n1C2)COC(=O)[C@]3(O)CC` [irinotecan]: the “AUC0-∞” value in data set [8] (moiety Free SN38) is recorded as 9,940 ng x h/mL; in data set [8] (moiety Irinotecan), 16,348 ng x h/mL; in [8] (moiety SN38-G), 15,493 ng x h/mL. Further, the Cmax in data set [8] (moiety Free SN38) is given as 1,125 ng/mL; in [8] (moiety Irinotecan) it was 6,571 ng/mL; in data set [8] (moiety SN38-G), 2,620 ng/mL. Moreover, the Tmax (as a rule, the time from dosing to the highest level) was 31.8 min in [8] (moiety Free SN38), 17.4 min in data set [8] (moiety Irinotecan) and 36 min in data set [8] (moiety SN38-G). Besides, in [9], the MTD (as a rule, the largest dose that counted as tolerated) was found to be 50 mg/kg. In [10] (50 mg/kg IV, 2 healthy CD-1 mice), the Tolerability result was “safe”. In addition, the Mortality result is “died instantly” in data set [10] (75 mg/kg IV, healthy CD-1 mice) and “both died immediately” in [10] (100 mg/kg IV, 2 SCID mice bearing HCT-116). The “fraction of irinotecan transformed in vivo into SN38” value in [11] (human setting) is listed as 2–8%. Besides, in data set [11] (in humans), the “drug excreted as intact irinotecan” value is 55%. The “tumor growth inhibition (TGI) on Day 10” value in [12] is listed as 82%; in data set [12] (listed as Irinotecan) it was 82.3%. In addition, in data set [12] (IV groups on Day 21), the “Tumor weight Difference vs SPESN38-5 PO on Day 10” value was -0.6587. The “Tumor weight Difference vs Vehicle on Day 10” value in [12] (IV groups on Day 21) is -0.9605. Moreover, in data set [12] (normalized BW, ending Day 21, IV qwk x 3 (irinotecan 50 mg/kg, SPESN38-5 55 mg/kg)), the “Mean % BW change at ending day” value was 90.5%.

These data come from publication PMC10712105 (Journal of Translational Medicine, 2023).
